This is an account of results in paper PMC10135574, “N-Carbamoylputrescine Amidohydrolase of Bacteroides thetaiotaomicron, a Dominant Species of the Human Gut Microbiota” (Biomedicines, 2023).

This test has as its target T1, NCPAH-(His)6; N-carbamoylputrescine amidohydrolase (NCPAH) (Bacteroides thetaiotaomicron, UniProt Q8A9E0).
T1 construct: gene BT_0875; full-length, C-terminal His6 tag kept (pET23b NdeI/XhoI, plasmid pMSK106), expressed in E. coli BL21(DE3)
T1 sequence (Q8A9E0 1-294): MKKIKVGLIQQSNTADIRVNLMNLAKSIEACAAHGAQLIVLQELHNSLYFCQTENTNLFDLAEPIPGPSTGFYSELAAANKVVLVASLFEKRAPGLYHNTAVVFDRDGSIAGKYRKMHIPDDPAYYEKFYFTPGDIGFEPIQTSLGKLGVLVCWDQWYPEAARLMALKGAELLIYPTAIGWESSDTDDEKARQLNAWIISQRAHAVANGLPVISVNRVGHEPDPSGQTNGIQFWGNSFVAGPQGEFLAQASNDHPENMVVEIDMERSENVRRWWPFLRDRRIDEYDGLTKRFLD
The test can be described thus: HPLC of putrescine formed. It is filed as biochemical. The settings on record: read-out: % inhibition at 1 mM.

SMILES strings stand for the structures.

Turning to `N=C(N)NCCCCN` [agmatine], the inhibition at 1000 µM is greater than 80%. Take `NCCCCN` [putrescine]: the inhibition at 1000 µM is roughly 50%.

`NCCCCNCCCN` [spermidine]: the inhibition at 1000 µM is greater than 80%.
